According to PMC4775225, “Bromodomain inhibition of the transcriptional coactivators CBP/EP300 as a therapeutic strategy to target the IRF4 network in multiple myeloma” (eLife, 2016):

What was measured:
[1] = target: T1, first bromodomain of BRD4 (BRD4-BD1) (Homo sapiens, UniProt O60885); experiment: AlphaLISA, acetylated peptide binding to BRD4-BD1; settings: BRD4-BD1, H4-TetraAc-biotin peptide; n ≥ 2 independent replicates
T1 construct: the first bromodomain of BRD4 (BRD4-BD1)
Method: (§1) Compound at varying concentrations were dispensed into 384 well Proxiplates (Perkin Elmer) using Echo technology (Labcyte, Inc.; Sunnyvale, CA). For CBP assays, 0.5 μM His-Flag-tagged CBP bromodomain (amino acids 1082–1197) was incubated with 0.003 μM H4-TetraAc-biotin for 20 min at room temperature in 1x reaction buffer (50 mM HEPES pH 7.5, 1 mM TCEP, 0.069 mM Brij-35, 150 mM NaCl, and 0.1 mg/ml BSA). Streptavidin acceptor beads and nickel donor beads (Perkin Elmer) were added to 15 μg/ml with a Combi Multidrop dispenser. Plates were sealed and incubated at 90 min in the dark at room temperature, and plates were read on an Envision plate reader (Perkin Elmer) according to manufacturer’s instructions. For the BET assays, the protocol was similar except that BET family bromodomains were used at 0.03 μM (BRD4-BD1) and incubated with 0.2 μM H4-TetraAc-biotin for 20 min in reaction buffer (40 mM HEPES pH7.0, 1 mM DTT, 0.069 mM Brij-35, 40 mM NaCl, and 0.1 mg/ml BSA). Streptavidin donor beads and Anti-Flag Acceptor beads (Perkin Elmer) were added to 10 μg/ml, and then plates were sealed and incubated in the dark for 60 min prior to reading on the Envision.

[2] = target: T2, CBP bromodomain and histone H3.3 (Homo sapiens, UniProt Q92793); experiment: NanoBRET, CBP bromodomain/histone H3.3 in HEK293 cells; type: cell-based; settings: NanoBRET, 293 cells
T2 construct: NanoBRET with the isolated CBP bromodomain and histone H3.3 in 293 cells; host or cells: HEK293
T2 sequence (Q92793 1085-1192 limits assumed): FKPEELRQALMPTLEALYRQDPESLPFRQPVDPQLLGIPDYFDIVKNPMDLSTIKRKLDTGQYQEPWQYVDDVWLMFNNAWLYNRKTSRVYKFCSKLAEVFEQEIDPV
Method: NanoBRET was carried out using the NanoBRET Protein:Protein Interaction System (Promega, Inc.; Madison, WI) according to the manufacturer’s instructions. Briefly, HEK293 cells were transiently co-transfected with a vector for histone H3.3-HaloTag and a NanoLuc tagged CBP bromodomain expression construct. Transfected cells were plated in 96 -well plates in the presence or absence of ligand, then treated with dose titrations of indicated compounds. Readings were performed on an Envision Plate Reader (Perkin Elmer, Inc.; Waltham, MA) and BRET readings were calculated by dividing the acceptor emission value (600 nm) by the donor emission value (460/50 nm).

[3] = target: T3, full length BRD4 ZsGreen fusion protein (Homo sapiens, UniProt O60885); experiment: Bromodomain chromatin release assay, BRD4 (U2OS, high content imaging); type: cell-based; settings: 2 hr, n = 2 biological replicates ± SEM, read-out: IC50 (μM), BRD4 chromatin release (EC50)
T3 construct: CBP: CBP-bromodomain/BRD9; BRD4: full length BRD4; expressed in transfected cells
Method: As described previously ([Huang et al., 2014]), this assay monitors the compound-dependent release and aggregation of a fusion protein consisting of a bromodomain and the fluorescent protein ZsGreen. For the BRD4 chromatin release assay, U2OS cells capable of inducibly expressing the full-length BRD4 protein in fusion with ZsG were generated using the pLVT3G/ZsGreen-BRD4/TO3G vector and maintained in blasticidin at 15 μg/ml. […] Therefore, the bromodomain (BD) of CBP was cloned into full length BRD9 (replacing the BRD9 BD) in frame with a ZsGreen fluorescent tag (ZsG). U2OS cells capable of inducibly expressing the ZsGreen-CBPBD fusion protein were generated by lentiviral delivery of the pLVT3G/BRD9-ZsG-CBPBD/TO3G vector, which contains both the inducible fusion protein and the tet transactivator. Cells were selected and maintained in the presence of 15 μg/ml blasticidin. 5000 cells/well were seeded in 384-well imaging plates in the presence of 2 μg/ml doxycycline to induce the expression of ZsG-fusion proteins. After 16 hr of incubation with doxycycline, fresh media containing serial dilution of compounds were added to the cells for 2 hr at 37°C. Cells were fixed with 4% paraformaldehyde (PFA) dissolved in PBS for 15 min at room temperature. Images of cells were acquired using ImageXpress Micro (Molecular Devices, Inc.; Sunnyvale, CA) and processed with the Transfluor Module of MetaXpress software. Average pits per cell values were obtained from four adjacent images in each well with two technical replicates for each compound concentration. Dose-response curves were generated by plotting the average pits per cell values at each dose and EC50 values were calculated by a four-parameter non-linear regression model in GraphPad Prism.

[4] = target: T4, CBP bromodomain (amino acids 1082–1197) (Homo sapiens, UniProt Q92793); experiment: AlphaLISA, acetylated peptide binding to CBP bromodomain; settings: isolated CBP bromodomain, H4-TetraAc-biotin peptide; n ≥ 2 independent replicates
T4 construct: His-Flag-tagged CBP bromodomain (amino acids 1082–1197)
T4 sequence (Q92793 1082-1197): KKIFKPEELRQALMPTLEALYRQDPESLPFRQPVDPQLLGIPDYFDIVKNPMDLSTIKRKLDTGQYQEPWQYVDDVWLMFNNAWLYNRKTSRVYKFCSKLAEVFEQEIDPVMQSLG
Method: as §1

In the case of Cc1sc2c(c1C)C(c1ccc(Cl)cc1)=N[C@@H](CC(N)=O)c1nnc(C)n1-2 [CPI203], the IC50 [1] is reported as 0.05 ± 0.01 µM, the “dose-dependent inhibition of CBP-H3.3 binding” value [2] is reported as “did not display dose-dependent inhibition” and the EC50 [3] is reported as 0.05 ± 0.02 µM. It also gave an IC50 [4] of 6.5 ± 0.64 µM.
